One sequence from patent US8039438B2, “Synthetic peptides that cause F-actin bundling and block actin depolymerization” (The Regents of the University of California, priority 2003, dated 2011) can be followed below.

Assay [1] deals with T1, purified rabbit muscle actin (Oryctolagus cuniculus, UniProt P68135).
T1 construct: purified rabbit muscle actin in vitro were visualized by negative stain electron microscopy; from tissue; host or cells: rabbit muscle
Kind of assay: Negative stain electron microscopy of actin polymerized in presence of peptide. Format: biochemical. Conditions: co-polymerization, molar ratio peptide:actin=2, negative stain electron microscopy. An excerpt:
The actin bundles caused by co-polymerization of SS12 peptide with purified rabbit muscle actin in vitro were visualized by negative stain electron microscopy (FIG. 5). The bundles still show overall filamenteous structure about 3 times the width of actin filaments polymerized in vitro in the absence of SS12 peptide (FIG. 5A, B). The surface of the bundles is not smooth, but irregular, resembling attempts to branch or attachments of short actin bundles to the sides of the long ones (FIG. 5C). The peptide-bundled actin filaments are much shorter than the control filaments as visualized with rhodamine-phalloidin by fluorescence microscopy (data not shown).
Purified rabbit actin was polymerized in the presence or absence of the SS12 peptide and by absorption applied to a carbon coated copper grid. Negative contrastation was carried out with Pb-citrate and the dried grid was viewed in an Electron microscope at high magnifications (12,000× and 65,000×). […] Higher magnification identified a “modulated” decoration of the otherwise smooth filaments.

Assay [2] relates to MDA 231 cells. Kind of assay: Actin reorganization in MDA 231 cells electroporated with peptide, rhodamine-phalloidin stained. The assay is classed as cell-based, human. How it is done:
Referring now to FIG. 2, it can be shown that treatment with an active peptide results in actin organization in human mammary epithelial tumor cells. MDA 231 cells were electroporated with SS1 (panel A) or SS12 (panel B), fixed, and rhodamine-phalloidin stained. Control epithelial tumor cells were treated with SS1 (SEQ ID NO: 9) resulting in no effect on actin-filled lamellipodia (or ruffling) characteristic of crawling cells.
MDA 231 cells are a particularly aggressive tumor cell line crawling and moving from between tissues.

Take “GIVRKWISRFEVWPYL (SS12 active synthetic peptide)”: the “width of bundles relative to actin filaments polymerized in the absence of peptide” value in assay [1] is “about 3 times the width”. Moreover, the cell movement entry in assay [2] (MDA 231 cells after peptide treatment) is on record as “ceased movement”. Moreover, the “effect on actin-filled lamellipodia” value in assay [2] (MDA 231 cells electroporated with peptide) is on record as “no longer have lamellipodia”.
